From patent publication US20220390471A1, “INTEGRATED DRUG DISCOVERY PLATFORM FOR PROTEIN MISFOLDING DISORDERS ASSOCIATED WITH METABOLITE ACCUMULATION” (Ramot at Tel-Aviv University Ltd., priority 2021, published 2022)
Where two headings read alike, the source gives them in different places. Blank lines part the entries; values can stand above or below the compound they belong to.

Experiments:
Hcy fibrils [1] = experiment: ThT binding assay, inhibition of Hcy self-assembly by polyphenols; assay type: biochemical; settings: 1 mM EGCG or 0.1 mM TA added at timepoint zero; Hcy in PBS; emission 480 nm, excitation 440 nm
Protocol: Hcy was dissolved at 90° C. in PBS to a final concentration of 10, 5 and 2 mg/mL and maintained at 90° C. until the beginning of the measurement. Samples containing polyphenols were immediately mixed with the inhibitors. EGCG or TA (final concentration of 1 mM and 0.1 mM, respectively). As a control, Hcy was diluted with PBS alone to the same final concentrations. ThT in PBS was added to a final concentration of 20 μM for 5 and 10 mg/ml Hcy or 40 μM for 2 mg/ml Hcy. Next, the solutions were plated in a black 96-well, clear, and flat bottom microplate (Greiner) and self-assembly kinetics were recorded over time at room temperature (uncontrolled gradual cooling of the solutions) with short shaking before each read. ThT emission data at 480 nm (excitation at 440 nm), were measured using a Tecan™ SPARK 10 M plate reader, gain of 100 for 2 mg/ml, and using a Tecan™ Infinite 200 PRO plate reader, gain of 90 for 5 and 10 mg/ml.

Hcy fibrils [2] = experiment: TEM of pre-formed solutions of Hcy with polyphenols; settings: Hcy 2 mg/mL + 1 mM EGCG or 0.1 mM TA
Protocol: Hcy was dissolved at 90° C. in PBS at various concentrations followed by gradual cooling of the solution. Where indicated, EGCG or TA (final concentration of 1 mM and 0.1 mM, respectively) were added before gradual cooling. Subsequently, 10 μL samples were placed on 400-mesh copper grids. After 2 min, excess fluids were removed. Samples were viewed using a JEOL 1200EX electron microscope operating at 80 kV.

SH-SY5Y cells [3] = experiment: MTT cell viability assay, SH-SY5Y cells; assay type: cell-based, human; settings: for Cell viability with inhibitor-containing Hcy solution compared to Hcy alone (MTT): Hcy 2 mg/mL with EGCG 0.1 mM or TA 0.01 mM
Protocol: SH-SY5Y cells (ATCC CRL-2266) or HEK293 cells (ATCC® CRL-1573) were cultured (2×10^5 cells/mL) in DMEM/Nutrient Mixture F12 (Ham's; 1:1) supplemented with 10% fetal bovine serum (FBS) in 96-well tissue microplates (100 μL per well) and allowed to adhere overnight at 37° C. Half of each plate was plated with cells, with the other half later serving as a control containing solutions alone. The treatment solutions were prepared as follows: Hcy or methionine were dissolved at 90° C. and at various concentrations in cell media without FBS, followed by gradual cooling of the solutions. For solutions containing polyphenols, Hcy (final concentration of 2 mg/mL) was similarly dissolved in cell media and mixed with EGCG or TA (final concentration of 0.1 mM and 0.01 mM, respectively, stock solution dissolved in cell medium) before gradual cooling. The medium was replaced and cells were treated with the solutions (100 μL per well), followed by overnight incubation at 37° C. Control cells were incubated with medium that was treated in the same manner (without Hcy). Controls of media supplemented with the inhibitors, without Hcy, were examined as well. Cell viability was evaluated using the 3-(4,5-dimethylthiazolyl-2)-2,5-diphenyltetrazolium bromide (MTT) assay. Briefly, 10 μL of 5 mg/mL MTT dissolved in PBS was added to each well. After a 4 hours incubation at 37° C. 100 μL of extraction buffer […] dissolved in a mixture of 50% DMF and 50% DDW (pH 4.7)] was added to each well, and the plates were further incubated at 37° C. for 30 min. Finally, color intensity was measured using an ELISA reader at 570 nm. Blank measurements of the solutions without cells were respectively subtracted. The data points are presented as mean±SD. For inhibitors and methionine controls, two-tailed Student's t test was performed when two groups were compared.

HEK293 cells = experiment: MTT cell viability assay, HEK293 cells; assay type: cell-based; settings: HEK293 non-neuronal cell line, 24 hours
Protocol: SH-SY5Y cells (ATCC CRL-2266) or HEK293 cells (ATCC® CRL-1573) were cultured (2×10^5 cells/mL) in DMEM/Nutrient Mixture F12 (Ham's; 1:1) supplemented with 10% fetal bovine serum (FBS) in 96-well tissue microplates (100 μL per well) and allowed to adhere overnight at 37° C. Half of each plate was plated with cells, with the other half later serving as a control containing solutions alone. […] For solutions containing polyphenols, Hcy (final concentration of 2 mg/mL) was similarly dissolved in cell media and mixed with EGCG or TA (final concentration of 0.1 mM and 0.01 mM, respectively, stock solution dissolved in cell medium) before gradual cooling. The medium was replaced and cells were treated with the solutions (100 μL per well), followed by overnight incubation at 37° C. Control cells were incubated with medium that was treated in the same manner (without Hcy). Controls of media supplemented with the inhibitors, without Hcy, were examined as well. Cell viability was evaluated using the 3-(4,5-dimethylthiazolyl-2)-2,5-diphenyltetrazolium bromide (MTT) assay. Briefly, 10 μL of 5 mg/mL MTT dissolved in PBS was added to each well. After a 4 hours incubation at 37° C. […] Finally, color intensity was measured using an ELISA reader at 570 nm. […]

SH-SY5Y cells [4] = experiment: Annexin V and propidium iodide apoptosis assay (flow cytometry); assay type: cell-based, human
Protocol: SH-SY5Y cells were cultured at 2×10^5 cells/mL in 24-well plates in DMEM/Nutrient Mixture F12 (Ham's; 1:1) supplemented with 10% FBS and were allowed to adhere overnight at 37° C. The treatment solutions containing Hcy and methionine were prepared as described above for the MTT assay. Cells were treated with the solutions followed by overnight incubation at 37° C. Control cells were incubated with medium that was treated in the same manner without Hcy. The apoptotic effect was evaluated using the MEBCYTO Apoptosis kit (MBL International), according to the manufacturer's instructions. Briefly, the adherent cells were trypsinized, detached and combined with floating cells from the incubated growth medium. Cells were then centrifuged and washed once with PBS and once with binding buffer. Cells were subsequently incubated with annexin V-FITC and PI for 15 min in the dark, resuspended in 200 μL binding buffer and analyzed by flow cytometry using a single laser-emitting excitation light at 488 nm. Data from at least 10^4 cells were acquired using the BD FACSort and the CellQuest software (BD Biosciences). Analysis was performed using the FlowJo software (TreeStar, version 14).

SH-SY5Y cells [5] = experiment: ProteoStat staining, confocal microscopy of treated SH-SY5Y cells; assay type: cell-based, human; settings: Hcy assemblies 2 mg/mL, 4 hours
Protocol: SH-SY5Y cells: 2×10^5 cells/mL were cultured in DMEM/Nutrient Mixture F12 (Ham's; 1:1) supplemented with 10% FBS in 24-well plate on glass slides coated with 0.01% Poly-L-Lysine. When reaching ˜70-80% confluency, cells were treated with Hcy (2 mg/mL dissolved at 90° C. in cell media without FBS, followed by gradual cooling of the solution). After 4 hours of incubation, the cells were immediately supplemented with ProtesoStat dye diluted 1:250 in ProteoStat assay buffer followed by incubation for 15 min at room temperature protected from light. Cells were imaged using Leica TCS SP8 laser confocal microscope with ×63 1.4 NA or ×100 1.4 NA oil objectives. An argon laser with 488 excitation line was used for ProteoStat (emission wavelength, 500-600 nm).

cys4Δ yeast strain [6] = assay type: cell-based, Saccharomyces cerevisiae
Protocol: The cys4 gene was disrupted in wild-type (WT) yeast strain (BY4741) via homologous recombination using PCR fragments amplified from the plasmid pFA6a-KanMX6 as a template with primer DL154:
(§1) WT and cys4Δ strains were grown overnight at 30° C. Unless otherwise specified, the strains were grown on synthetic defined medium (SD) containing 20 mg/L L-methionine, 20 mg/L L-histidine monohydrochloride monohydrate, 20 mg/L uracil and 30 mg/L L-leucine. Cysteine was added to a final concentration of 13 mg/L. Hcy was added at the indicated concentrations.
For spotting assays, strains were diluted to 6.25*10^7 cells/mL and then 5-fold serially diluted and spotted on the indicated plates. Plates were incubated at 30° C. for 2-3 days.
(§2) For OD600 measurements, strains were diluted to OD600 0.01. 200 μL of cells were platted on 96 wells plates and incubated at 30° C. for 30 hours with continuous shaking. OD600 was measured using Tecan™ SPARK 10M plate reader.
(§3) The percentage of growth analysis (FIG. 10F) represents the OD600 levels following 27 hours of growth in the plate reader. The percentage of growth represents the growth under the indicated conditions, with or without 0.3 mM TA, compared to the growth of WT without TA.

cys4Δ yeast strain [7] = experiment: Aggregation level assay in yeast (ProteoStat, flow cytometry); assay type: cell-based, Saccharomyces cerevisiae; settings: cys4Δ with 100 mg/L Hcy compared to WT and to mutant without Hcy
Protocol: For each sample, 2×10^6 cells/mL of logarithmic cells were resuspended with ProteoStat dye (Enzo Life Sciences). Cells were incubated for 15 min at room temperature protected from light. Flow cytometry was preformed using Stratedigm S1000EXi and the CellCapTure software (Stratedigm, San Jose, Calif.). Live cells were gated (P1) by forward scatter and side scatter. Fluorescence channels for FITC (530/30) and PE-Cy5 (676/29) were used utilizing a 488 nm laser source. A total of 50,000 events were acquired for each sample. Analyses were performed using the FlowJo software (TreeStar, version 14).

β-amyloid1-42 = target: T1, β-amyloid1-42 (Homo sapiens, UniProt P05067); experiment: In-vitro seeding of β-amyloid1-42 by Hcy assemblies (ThT binding assay); assay type: biochemical; settings: 20% v/v pre-formed Hcy assemblies (2, 5, 10 mg/mL stocks), 3 μM β-amyloid1-42 monomers, 37° C.
T1 construct: purchased rPeptide
Protocol: Hcy was dissolved at 90° C. in PBS followed by gradual cooling of the solution. […] (rPeptide) was dissolved in DMSO to a concentration of 120 μM. The monomeric protein was mixed with pre-formed 20% v/v Hcy assemblies (taken from 10, 5 or 2 mg/mL stock solutions), or with an equivalent volume of PBS as a control, to a final concentration of 3 μM β-amyloid1-42 ThT was added to a final concentration of 20 μM. Aggregation was monitored using Tecan™ Infinite 200 PRO fluorescence plate reader over time at 37° C. Blank measurements of Hcy only (without β-amyloid) were respectively subtracted.

[8] = TEM of metabolite self-assembly; assay type: physicochemical; settings: dissolved at 90° C., gradual cooling
Protocol: Hcy was dissolved at 90° C. in PBS at various concentrations followed by gradual cooling of the solution. […] Subsequently, 10 μL samples were placed on 400-mesh copper grids. After 2 min, excess fluids were removed. Samples were viewed using a JEOL 1200EX electron microscope operating at 80 kV.

[9] = ThT binding assay of metabolite self-assembly; assay type: physicochemical; settings: emission 480 nm
Protocol: Hcy was dissolved at 90° C. in PBS to a final concentration of 10, 5 and 2 mg/mL and maintained at 90° C. until the beginning of the measurement. Samples containing polyphenols were immediately mixed with the inhibitors. […] As a control, Hcy was diluted with PBS alone to the same final concentrations. […] Next, the solutions were plated in a black 96-well, clear, and flat bottom microplate (Greiner) and self-assembly kinetics were recorded over time at room temperature (uncontrolled gradual cooling of the solutions) with short shaking before each read. […] Following an overnight incubation at room temperature with gentle rotation (uncontrolled gradual cooling of solutions), ThT emission signal at 480 nm (excitation at 450 nm) was measured at room temperature with short shaking before each read and using a Tecan™ Infinite 200 PRO plate reader, gain 90.

WT yeast strain (BY4741) = experiment: Yeast growth assay, WT strain; assay type: cell-based, Saccharomyces cerevisiae; settings: 0.3 mM TA, SD with 13 mg/L cysteine and 100 mg/L Hcy, 27 hours
Protocol: as §1, §2, §3

T1 sequence (P05067 672-713 limits assumed): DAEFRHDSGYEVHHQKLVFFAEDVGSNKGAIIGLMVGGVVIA

Structure (SMILES): O=C(O[C@@H]1Cc2c(O)cc(O)cc2O[C@@H]1c1cc(O)c(O)c(O)c1)c1cc(O)c(O)c(O)c1 [EGCG, epigallocatechin gallate]
Inhibition of Hcy fibril formation, ThT fluorescence intensity over time (Hcy fibrils [1]): significant reduction in the ThT fluorescence intensity curves | Structures seen by TEM in mixture of Hcy with polyphenol (Hcy fibrils [2]): no structures were formed | Cell viability, inhibitors alone (MTT) (SH-SY5Y cells [3]; SH-SY5Y, 24 hours, EGCG 0.1 mM or TA 0.01 mM without Hcy): did not affect cell viability | Cell viability with inhibitor-containing Hcy solution compared to Hcy alone (MTT) (SH-SY5Y cells [3]; SH-SY5Y, 24 hours): significant increase in cell viability

Structure (SMILES): NC(CCS)C(=O)O (centres unmarked) [Hcy, 2-Amino-4-sulfanylbutanoic acid]
Cytotoxicity (MTT cell viability) (SH-SY5Y cells [3]): dose-dependent cytotoxicity | Cell death (MTT) (SH-SY5Y cells [3]; SH-SY5Y, 24-hour treatment with pre-formed Hcy assemblies in cell medium): up to 80% | Cytotoxicity (MTT cell viability) (HEK293 cells): no significant toxicity | Apoptotic activity (annexin V / PI) (SH-SY5Y cells [4]): stimulated apoptotic activity in a concentration-dependent manner | Detection of amyloid-like structures in cells (ProteoStat) (SH-SY5Y cells [5]): amyloid-like structures in treated SH-SY5Y cells | Growth sensitivity to Hcy supplied in the growth medium (cys4Δ yeast strain [6]; cys4Δ compared to WT, SD media with Hcy at different concentrations): sensitivity to Hcy supplied in the growth medium was observed | Degree of aggregation upon Hcy feeding (ProteoStat flow cytometry) (cys4Δ yeast strain [7]): significantly higher degree of aggregation | Cross-seeding of β-amyloid1-42 aggregation (ThT signal) (β-amyloid1-42): induced β-amyloid1-42 aggregation in a concentration-dependent manner | Formation of amyloid-like fibrils (TEM) [8]: formed amyloid-like fibrils | ThT fluorescence of self-assembly [9]: higher metabolite concentrations showing stronger ThT fluorescence

Structure (SMILES): O=C(OC[C@H]1O[C@@H](OC(=O)c2cc(O)c(O)c(OC(=O)c3cc(O)c(O)c(O)c3)c2)[C@H](OC(=O)c2cc(O)c(O)c(OC(=O)c3cc(O)c(O)c(O)c3)c2)[C@@H](OC(=O)c2cc(O)c(O)c(OC(=O)c3cc(O)c(O)c(O)c3)c2)[C@@H]1OC(=O)c1cc(O)c(O)c(OC(=O)c2cc(O)c(O)c(O)c2)c1)c1cc(O)c(O)c(OC(=O)c2cc(O)c(O)c(O)c2)c1 [TA, tannic acid]
Inhibition of Hcy fibril formation, ThT fluorescence intensity over time (Hcy fibrils [1]): significant reduction in the ThT fluorescence intensity curves | Structures seen by TEM in mixture of Hcy with polyphenol (Hcy fibrils [2]): no structures were formed | Cell viability with inhibitor-containing Hcy solution compared to Hcy alone (MTT) (SH-SY5Y cells [3]; SH-SY5Y, 24 hours): significant increase in cell viability | Cell growth with TA (percentage of growth, OD600) (cys4Δ yeast strain [6]; cys4Δ, 0.3 mM TA, SD with 13 mg/L cysteine and 100 mg/L Hcy, 27 hours): significantly improved the cell growth | Cell growth with TA (percentage of growth, OD600) (WT yeast strain (BY4741)): no effect

Formation of amyloid-like fibrils (TEM) [8]: did not form amyloid-like fibrils | ThT fluorescence of self-assembly [9]: did not show a fluorescence signal
Structure (SMILES): CSCC[C@H](N)C(=O)O [methionine]
Cytotoxicity (MTT cell viability) (SH-SY5Y cells [3]; SH-SY5Y, 24-hour treatment, solutions prepared in cell medium): did not show any toxicity | Apoptotic activity (annexin V / PI) (SH-SY5Y cells [4]; SH-SY5Y, treated for 24 hours): did not show any apoptotic effect
